Data reported in paper PMC6392468, “Inhibition of lipid droplet formation by Ser/Thr protein phosphatase PPM1D inhibitor, SL-176” (PLoS ONE, 2019).

Biological target: T1, PPM1D (Mus musculus, UniProt Q9QZ67)
T1 construct: His-mousePPM1D (1–413)
T1 sequence (Q9QZ67 1-413): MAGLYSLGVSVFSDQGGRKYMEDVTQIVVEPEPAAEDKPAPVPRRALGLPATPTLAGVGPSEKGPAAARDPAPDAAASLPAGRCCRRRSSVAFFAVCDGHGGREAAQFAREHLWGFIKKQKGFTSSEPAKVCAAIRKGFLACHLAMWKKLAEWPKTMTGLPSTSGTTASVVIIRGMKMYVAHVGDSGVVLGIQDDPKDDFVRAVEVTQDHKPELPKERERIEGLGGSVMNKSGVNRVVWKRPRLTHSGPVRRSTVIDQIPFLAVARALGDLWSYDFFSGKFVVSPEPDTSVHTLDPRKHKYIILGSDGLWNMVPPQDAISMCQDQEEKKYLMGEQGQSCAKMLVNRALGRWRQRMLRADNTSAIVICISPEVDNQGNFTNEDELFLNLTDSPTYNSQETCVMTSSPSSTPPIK
Experiment: in vitro phosphatase assay, released free phosphate by BIOMOL GREEN, p53-derived peptide substrate
Format: biochemical

In the case of `CC[Si](CC)(CC)O[C@@H]1CCC[C@@H]2[C@@H]1C[C@H](O[Si](C)(C)C(C)(C)C)C[C@@]2(C)C(=O)O` [SL-176], the IC50 is reported as 0.112 ± 0.012 µM.
